According to paper PMC10460054, “Multiplex Quantitative Analysis of 9 Compounds of Scutellaria baicalensis Georgi in the Plasma of Respiratory Syncytial Virus-Infected Mice Based on HPLC-MS/MS and Pharmacodynamic Effect Correlation Analysis” (Molecules, 2023):
In brackets after ≈: the same amount, converted by molar mass.

Columns and labels:
[1] = HPLC-MS/MS quantification of 9 compounds in plasma of RSV-infected mice after Scutellaria baicalensis Georgi administration; assay type: in vivo, BALB/c mice; design: drug-containing plasma content: unit not given here; conditions: for time of highest plasma concentration, first peak / time of highest plasma concentration, second peak: RSV-infected mice after Scutellaria baicalensis Georgi administration, double peak phenomenon; for drug-containing plasma content: RSV-infected mice, mean ± SD, n = 6
Description: The study employed a Vanquish high-performance liquid chromatograph for chromatographic separation, with a HALO C18 column (2.1 × 100 mm, 2.7 μm) as the chromatographic column.
Mass spectrometry was performed using a quadrupole-electrostatic field orbitrap desktop mass spectrometer equipped with an electrospray ion source (ESI). The ESI parameters were set as follows: the pyrolysis voltage was 3.0 kV, the auxiliary gas flow rate was 10 mL/min, the ion transport tube temperature was 350 °C, the auxiliary gas temperature was 350 °C, and the sheath gas flow rate was 45 L/min. Quantitative analysis was performed using the selective ion detection (SIM) mode (Table S1).
Male BALB/c mice, aged 2 weeks and weighing 10–12 g, were chosen for this study. They were acclimatized for 2 days and then randomly assigned to one of five groups: blank (C), model (M), positive control ribavirin (Y1), positive control lianhua qingwen granules (Y2), and Scutellaria baicalensis Georgi administration (H1-H12). Each group consisted of six mice, and their weights were recorded. The mice were pre-administered for 2 days, and on the third day, RSV virus (TCID50 = 10^−6) was inoculated through intranasal infection at a volume of 35 μL per mouse. The blank group was inoculated with normal saline of the same volume. After the inoculation of the RSV virus, the blank and model groups were given distilled water by gavage, while the drug-administered groups were given an aqueous extract of Scutellaria baicalensis Georgi (10 µL/g) once a day for 3 days. The mice were observed daily for their mental status, hair color, diet, and body weight. […] It was then centrifuged at 3000 r/min for 10 min, and the upper layer of plasma was stored at −80℃. Lung tissues were weighed, the lung index was calculated, and the lung tissues were stored in the refrigerator at −80 °C for freezing.
The plasma sample (200 μL) was processed in a 5 mL tube. Subsequently, 10 μL of 5% formic acid and 20 μL of 2 mol/L hydrochloric acid were added, followed by vortexing for 1 min with 10 μL of internal standard solution (100 ng/mL tinidazole). The extraction was completed by adding 2000 μL of acetonitrile solvent and vortexing for 2 min. The mixture was then centrifuged at 12,000 r/min at 4 °C for 10 min, and the supernatant solution was collected in a new centrifuge tube. The supernatant solution was dried by nitrogen at room temperature before being redissolved in 50 μL of 70% acetonitrile solution containing 0.1% formic acid. After vortexing for 1 min, the solution was centrifuged at 12,000 r/min at 4 °C for 10 min, and the resulting supernatant was injected for analysis. The injection volume was 3 μL.
The drug-containing plasma at different time points was subjected to sample treatment. The HPLC-MS/MS analysis method was used to quantitatively detect the 9 compounds in the ion detection (SIM) mode. According to the relative peak area value = index peak area/internal standard peak area, the corresponding concentration value was calculated by substituting the standard curve of each component.

[2] = Stability of 9 compounds in mouse plasma under storage conditions; assay type: in vitro ADME; conditions: n = 6; for Stability 3-Freeze-Thaw Cycles RE: 3 times repeated freeze-thaw at −80 °C; for Stability Short-Term RE: 12 h at 4 °C; for Stability Long-Term RE: −20 °C for 20 days
RSV = conditions: cited from earlier work
[3] = tested on: respiratory syncytial virus (RSV); assay: Lung index and lung index repair rate in RSV-infected mice; assay type: in vivo; conditions: positive control groups
Description: (§1) Male BALB/c mice, aged 2 weeks and weighing 10–12 g, were chosen for this study. They were acclimatized for 2 days and then randomly assigned to one of five groups: blank (C), model (M), positive control ribavirin (Y1), positive control lianhua qingwen granules (Y2), and Scutellaria baicalensis Georgi administration (H1-H12). Each group consisted of six mice, and their weights were recorded. The mice were pre-administered for 2 days, and on the third day, RSV virus (TCID50 = 10^−6) was inoculated through intranasal infection at a volume of 35 μL per mouse. The blank group was inoculated with normal saline of the same volume. After the inoculation of the RSV virus, the blank and model groups were given distilled water by gavage, while the drug-administered groups were given an aqueous extract of Scutellaria baicalensis Georgi (10 µL/g) once a day for 3 days. The mice were observed daily for their mental status, hair color, diet, and body weight. […] Lung tissues were weighed, the lung index was calculated, and the lung tissues were stored in the refrigerator at −80 °C for freezing.
Based on the recorded body weight and lung tissue weight of mice in the blank, model, positive control, and administration groups, the lung index and lung index repair rate were calculated for each group. […]

[4] = tested on: respiratory syncytial virus (RSV); assay: Lung tissue viral load (RSV-F real-time PCR) and inhibition rate in RSV-infected mice; assay type: in vivo; conditions: positive control groups
Description: as §1, with “volume.” for “volume. After the inoculation of the RSV virus, the blank and model groups were given distilled water by gavage, while the drug-administered groups were given an aqueous extract of Scutellaria baicalensis Georgi (10 µL/g) once a day for 3 days. The mice were observed daily for their mental status, hair color, diet, and body weight.”
The F protein is a RSV-specific protein, so it can be used as a PCR gene indicator to indicate the viral load of lung tissue. […] After quantification, the RNA was reverse transcribed into cDNA, and the SYBR Green Master Mix reagent was used as the reaction system. […] The viral load inhibition rate was calculated using the 2^−ΔΔCt formula, and a graph depicting the change in lung tissue viral load over time was plotted, with time as the abscissa and lung tissue viral load as the ordinate. […]

[5] = 0.083 h after last gavage of Scutellaria baicalensis Georgi extract
[6] = 0.167 h after last gavage of Scutellaria baicalensis Georgi extract
[7] = 0.25 h after last gavage of Scutellaria baicalensis Georgi extract
[8] = 0.5 h after last gavage of Scutellaria baicalensis Georgi extract
[9] = 1 h after last gavage of Scutellaria baicalensis Georgi extract
[10] = 2 h after last gavage of Scutellaria baicalensis Georgi extract
[11] = 4 h after last gavage of Scutellaria baicalensis Georgi extract
[12] = 6 h after last gavage of Scutellaria baicalensis Georgi extract
[13] = 8 h after last gavage of Scutellaria baicalensis Georgi extract
[14] = 10 h after last gavage of Scutellaria baicalensis Georgi extract
[15] = 12 h after last gavage of Scutellaria baicalensis Georgi extract
[16] = 24 h after last gavage of Scutellaria baicalensis Georgi extract
[17] = high QC (20,000 or 10,000 ng/mL)

SMILES | time of highest plasma concentration, first peak [1] | time of highest plasma concentration, second peak [1] | drug-containing plasma content [1, 5] | drug-containing plasma content [1, 6] | drug-containing plasma content [1, 7] | drug-containing plasma content [1, 8] | drug-containing plasma content [1, 9] | drug-containing plasma content [1, 10] | drug-containing plasma content [1, 11] | drug-containing plasma content [1, 12] | drug-containing plasma content [1, 13] | drug-containing plasma content [1, 14] | drug-containing plasma content [1, 15] | drug-containing plasma content [1, 16] | Stability 3-Freeze-Thaw Cycles RE [2, 17] | Stability 3-Freeze-Thaw Cycles RE ([2]; low QC (12.5 or 25.6 ng/mL)) | Stability 3-Freeze-Thaw Cycles RE ([2]; medium QC (320 or 160 ng/mL)) | Stability Short-Term RE [2, 17] | Stability Short-Term RE ([2]; low QC (12.5 or 25.6 ng/mL)) | Stability Short-Term RE ([2]; medium QC (320 or 160 ng/mL)) | other results
COc1c(O)cc2oc(-c3ccccc3)cc(=O)c2c1O [Oroxylin A] | 0.167 h | 6 h | 13.47± 9.43 | 745.77± 35.54 | 63.52± 1.32 | 40.44± 4.81 | 160.88± 15.86 | 75.84± 5.43 | 486.23± 8.65 | 1063.52± 101.32 | 300.68± 17.25 | 19.18± 2.56 | 13.60± 7.94 | 0 | −5.29% | −4.26% | −8.41% | −4.07% | −3.30% | −5.14% | Stability Long-Term RE [2, 17]: −7.03%; Stability Long-Term RE ([2]; low QC (12.5 or 25.6 ng/mL)): −6.71%; Stability Long-Term RE ([2]; medium QC (320 or 160 ng/mL)): −5.78%
COc1c(O)cc(O)c2c(=O)cc(-c3ccccc3)oc12 [Wogonin] | 0.167 h | 6 h | 344.59± 1.64 | 981.37± 13.72 | 471.39± 1.78 | 222.21± 6.76 | 181.04± 4.74 | 10.35± 1.79 | 71.39± 17.8 | 2664.55± 129.18 | 97.31± 2.71 | 14.65± 8.42 | 3.41± 5.28 | 0 | 12.89% | −11.16% | 9.82% | 8.46% | −9.77% | 11.75% | IC50 against RSV (RSV): 7.4 µg/mL (≈ 26 µM); Stability Long-Term RE [2, 17]: 8.46%; Stability Long-Term RE ([2]; low QC (12.5 or 25.6 ng/mL)): −13.33%; Stability Long-Term RE ([2]; medium QC (320 or 160 ng/mL)): 11.75%
COc1c(O[C@@H]2O[C@H](C(=O)O)[C@@H](O)[C@H](O)[C@H]2O)cc(O)c2c(=O)cc(-c3ccccc3)oc12 [Wogonoside] | 0.167 h | 6 h | 553.37± 9.22 | 1829.58± 102.08 | 928.49± 33.77 | 776.20± 41.04 | 1078.05± 63.01 | 1333.51± 38.28 | 1372.78± 53.34 | 3829.58± 182.08 | 1825.89± 177.13 | 318.50± 23.92 | 188.85± 19.38 | 0 | 1.79% | −8.61% | 0.60% | 3.40% | −3.08% | −1.39% | Stability Long-Term RE [2, 17]: 3.40%; Stability Long-Term RE ([2]; low QC (12.5 or 25.6 ng/mL)): −2.30%; Stability Long-Term RE ([2]; medium QC (320 or 160 ng/mL)): −2.01%
NC(=O)c1ncn([C@@H]2O[C@H](CO)[C@@H](O)[C@H]2O)n1 [Y1, ribavirin] |  |  |  |  |  |  |  |  |  |  |  |  |  |  |  |  |  |  |  |  | Repair Rate (lung index) [3]: 58.33%; Lung Index ([3]; mean ± SD, n = 6): 0.85 ± 0.08 %; Inhibitory Rates (viral load) [4]: 61.26%; Viral Load ([4]; mean ± SD, n = 6): 2.27 ± 0.37 ×10^5 Copies/Ml
